Laboratory results from US9695155B2, “Herbicidal substituted pyrimidinyloxy benzene compounds” (E. I. DU PONT DE NEMOURS AND COMPANY, priority 2013, dated 2017).

What was measured:
corn = assay: Test E postemergence; assay type: in vivo, Zea mays; conditions: Zea mays, post-emergence
Text: (§1) Seeds of plant species selected from corn (Zea mays), soybean (Glycine max), velvetleaf (Abutilon theophrasti), lambsquarters (Chenopodium album), wild poinsettia (Euphorbia heterophylla), palmer pigweed (Amaranthus palmeri), waterhemp (common waterhemp, Amaranthus rudis), surinam grass (Brachiaria decumbens), large (Lg) crabgrass (Digitaria sanguinalis), Brazilian crabgrass (Digitaria horizontalis), fall panicum (Panicum dichotomiflorum), giant foxtail (Setaria faberii), green foxtail (Setaria viridis), goosegrass (Eleusine indica), johnsongrass (Sorghum halepense), ragweed (common ragweed, Ambrosia elatior), barnyardgrass (Echinochloa crus-galli), sandbur (southern sandbur, Cenchrus echinatus), arrowleaf sida (Sida rhombifolia), Italian ryegrass (Lolium multiflorum), dayflower (Virginia (VA) dayflower, Commelina virginica), field bindweed (Convolvulus arvensis), morningglory (Ipomoea coccinea), nightshade (eastern black nightshade, Solanum ptycanthum), kochia (Kochia scoparia), yellow nutsedge (Cyperus esculentus), cocklebur (common cocklebur, Xanthium strumarium), smartweed (ladysthumb smartweed, and hairy beggarticks (Bidens pilosa), were planted into a silt loam soil and treated preemergence with test chemicals formulated in a non-phytotoxic solvent mixture which included a surfactant.
(§2) At the same time, plants from these crop and weed species and also horseweed (Canada horseweed, Conyza canadensis), waterhemp_RES1, (ALS & Triazine resistant common waterhemp, Amaranthus rudis), and waterhemp_RES2, (ALS & HPPD resistant common waterhemp, Amaranthus rudis) were planted in pots containing Redi-Earth® planting medium (Scotts Company, 14111 Scottslawn Road, Marysville, Ohio 43041) comprising spaghnum peat moss, vermiculite, wetting agent and starter nutrients were treated with postemergence applications of test chemicals formulated in the same manner. Plants ranged in height from 2 to 18 cm for postemergence treatments (1- to 4-leaf stage). Treated plants and controls were maintained in a greenhouse for 14 to 21 days, after which time all species were compared to controls and visually evaluated. Plant response ratings, summarized in Table E, are based on a scale of 0 to 100 where 0 is no effect and 100 is complete control. A dash (-) response means no test result.

palmer pigweed = assay: Test E postemergence; assay type: in vivo, Amaranthus palmeri; conditions: post-emergence, read-out: Plant response rating, Pigweed, Palmer
Text: as §1, §2

Brazilian crabgrass = assay: Test E postemergence; assay type: in vivo, Digitaria horizontalis; conditions: Digitaria horizontalis, post-emergence, read-out: Plant response rating, Crabgrass, Brazil
Text: as §1, §2

barnyardgrass = assay: Test E postemergence; assay type: in vivo, Echinochloa crus-galli; conditions: Echinochloa crus-galli, post-emergence, read-out: Plant response rating, Barnyardgrass
Text: as §1, §2

Italian ryegrass = assay: Test E postemergence; assay type: in vivo, Lolium multiflorum; conditions: Lolium multiflorum, post-emergence, read-out: Plant response rating, Ryegrass, Italian
Text: as §1, §2

sedge, umbrella = assay: Test C flooded paddy test; assay type: in vivo, Cyperus difformis; conditions: Flood, scale 0 to 100 (0 no effect, 100 complete control), 13 to 15 days
Procedure, shortened: (§3)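 Under a constant 3 cm flood, test compounds went directly into the paddy water. Following 13 to 15 days of greenhouse growth, treated species and controls were compared by eye.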

ducksalad = assay: Test C flooded paddy test; assay type: in vivo, Heteranthera limosa; conditions: Flood, scale 0 to 100 (0 no effect, 100 complete control), 13 to 15 days
Procedure, shortened: as §3

[1] = Postemergence, 31 g ai/ha, scale 0 to 100
[2] = Postemergence, 62 g ai/ha, scale 0 to 100
[3] = Postemergence, 125 g ai/ha, scale 0 to 100
[4] = postemergence, 8 g ai/ha, scale 0 to 100, 0 no effect, 100 complete control
[5] = postemergence, 16 g ai/ha, scale 0 to 100, 0 no effect, 100 complete control

N#Cc1cccc(Oc2ncc(Cl)cn2)c1-n1cc(OCC(F)(F)F)cn1 [Compound 274, 3-[(5-chloro-2-pyrimidinyl)oxy]-2-[4-(2,2,2-trifluoroethoxy)-1H-pyrazol-1-yl]benzonitrile]
corn plant response (injury) rating, 0-100 at 31 g/ha (corn; [1]): 10% | corn plant response (injury) rating, 0-100 at 62 g/ha (corn; [2]): 10% | corn plant response (injury) rating, 0-100 at 125 g/ha (corn; [3]): 15% | corn plant response (injury) rating, 0-100 at 8 g/ha (corn; [4]): 10% | corn plant response (injury) rating, 0-100 at 16 g/ha (corn; [5]): 15% | pest or weed control at 31 g/ha (palmer pigweed; [1]): 85% | pest or weed control at 62 g/ha (palmer pigweed; [2]): 95% | pest or weed control at 125 g/ha (palmer pigweed; [3]): 100% | pest or weed control at 8 g/ha (palmer pigweed; [4]): 70% | pest or weed control at 16 g/ha (palmer pigweed; [5]): 65% | pest or weed control at 31 g/ha (Brazilian crabgrass; [1]): 25% | pest or weed control at 62 g/ha (Brazilian crabgrass; [2]): 35% | pest or weed control at 125 g/ha (Brazilian crabgrass; [3]): 50% | pest or weed control at 8 g/ha (Brazilian crabgrass; [4]): 10% | pest or weed control at 16 g/ha (Brazilian crabgrass; [5]): 20% | pest or weed control at 31 g/ha (barnyardgrass; [1]): 20% | pest or weed control at 62 g/ha (barnyardgrass; [2]): 10% | pest or weed control at 125 g/ha (barnyardgrass; [3]): 60% | pest or weed control at 8 g/ha (barnyardgrass; [4]): 5% | pest or weed control at 16 g/ha (barnyardgrass; [5]): 10% | pest or weed control at 31 g/ha (Italian ryegrass; [1]): 10% | pest or weed control at 62 g/ha (Italian ryegrass; [2]): 10% | pest or weed control at 125 g/ha (Italian ryegrass; [3]): 40% | pest or weed control at 8 g/ha (Italian ryegrass; [4]): 0% | pest or weed control at 16 g/ha (Italian ryegrass; [5]): 5%

FC(F)c1cnn(-c2c(Cl)cccc2Oc2ncc(Cl)cn2)c1 [Compound 192]
Plant response rating, Sedge, Umbrella (sedge, umbrella; 31 g ai/ha): 0 | Plant response rating, Sedge, Umbrella (sedge, umbrella; 62 g ai/ha): 0 | Plant response rating, Sedge, Umbrella (sedge, umbrella; 125 g ai/ha): 50 | Plant response rating, Sedge, Umbrella (sedge, umbrella; 250 g ai/ha): 85 | Plant response rating, Ducksalad (ducksalad; 31 g ai/ha): 0 | Plant response rating, Ducksalad (ducksalad; 62 g ai/ha): 0 | Plant response rating, Ducksalad (ducksalad; 125 g ai/ha): 70 | Plant response rating, Ducksalad (ducksalad; 250 g ai/ha): 75

Fc1cccc(Oc2ncc(Cl)cn2)c1-n1cc(Cl)cn1 [Compound 177]
Plant response rating, Sedge, Umbrella (sedge, umbrella; 31 g ai/ha): 0 | Plant response rating, Sedge, Umbrella (sedge, umbrella; 62 g ai/ha): 0 | Plant response rating, Sedge, Umbrella (sedge, umbrella; 125 g ai/ha): 60 | Plant response rating, Sedge, Umbrella (sedge, umbrella; 250 g ai/ha): 85 | Plant response rating, Ducksalad (ducksalad; 31 g ai/ha): 20 | Plant response rating, Ducksalad (ducksalad; 62 g ai/ha): 60 | Plant response rating, Ducksalad (ducksalad; 125 g ai/ha): 85 | Plant response rating, Ducksalad (ducksalad; 250 g ai/ha): 95

N#Cc1cccc(Oc2ncc(Cl)cn2)c1-n1cc(OC(F)F)cn1 [Compound 97]
Plant response rating, Sedge, Umbrella (sedge, umbrella; 31 g ai/ha): 60 | Plant response rating, Sedge, Umbrella (sedge, umbrella; 62 g ai/ha): 60 | Plant response rating, Sedge, Umbrella (sedge, umbrella; 125 g ai/ha): 75 | Plant response rating, Sedge, Umbrella (sedge, umbrella; 250 g ai/ha): 80 | Plant response rating, Ducksalad (ducksalad; 31 g ai/ha): 0 | Plant response rating, Ducksalad (ducksalad; 62 g ai/ha): 40 | Plant response rating, Ducksalad (ducksalad; 125 g ai/ha): 75 | Plant response rating, Ducksalad (ducksalad; 250 g ai/ha): 80
